Measured values as given in US12528815B2, “5-amino-8-(4-pyridyl)-[1,2,4]triazolo[4,3-c]pyrimidin-3-one compounds for use against cancer” (Nxera Pharma UK Limited, priority 2020, dated 2026).

What was measured:
[1] = target: T1, human adenosine A2A receptor (Homo sapiens, UniProt P29274); experiment: Inhibition binding assay, human adenosine A2A receptor membranes, [3H]ZM241385; conditions: 1 nM [3H]ZM241385, HEK293-hA2A membranes, 25° C., 1 h; IC50 converted to Ki with Cheng-Prusoff; read-out: A2A pKi (converted)
T1 construct: expressed in transfected cells; host or cells: HEK293 cells infected with BacMam
Summary of the method: (§1)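 Membranes from BacMam-infected HEK293 cells (0.2 μg A2A, 1.4 μg A1) incubated 1 h at 25° C with test compound and 1 nM [3H]ZM241385 (A2A; 50 mM Tris-HCl pH 7.4) or [3H]DPCPX (A1; plus 100 mM NaCl, 10 mM MgCl2). Nonspecific: 1 μM CGS15943 or DPCPX. Filtration, scintillation; IC50 converted to Ki via Cheng-Prusoff.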

[2] = target: T2, human adenosine A1 receptor (Homo sapiens, UniProt P30542); experiment: Inhibition binding assay, human adenosine A1 receptor membranes, [3H]DPCPX; conditions: 1 nM [3H]DPCPX, 25° C., 1 h; IC50 converted to Ki with Cheng-Prusoff; read-out: A1 pKi (converted)
T2 construct: expressed in transfected cells; host or cells: HEK293 cells infected with BacMam (the same paragraph also labels the preparation CHO-hA1)
T2 sequence (P30542 1-326): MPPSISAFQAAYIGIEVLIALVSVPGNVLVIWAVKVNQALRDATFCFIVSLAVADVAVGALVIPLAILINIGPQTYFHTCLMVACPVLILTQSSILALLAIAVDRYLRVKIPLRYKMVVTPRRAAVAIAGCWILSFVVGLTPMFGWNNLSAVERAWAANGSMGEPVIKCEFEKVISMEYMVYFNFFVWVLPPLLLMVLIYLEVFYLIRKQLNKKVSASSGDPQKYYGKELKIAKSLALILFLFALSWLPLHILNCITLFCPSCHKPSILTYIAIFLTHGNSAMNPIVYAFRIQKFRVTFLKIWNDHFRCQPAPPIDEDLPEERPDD
Summary of the method: as §1

[3] = target: T3, human CB1 receptor (Homo sapiens, UniProt P21554); experiment: CB1 receptor antagonism, agonist-induced cAMP modulation (HTRF) in transfected CHO cells; type: cell-based; conditions: read-out: Antag IC50
T3 construct: expressed in transfected cells; host or cells: CHO cells
Experimental: Receptor antagonism: Evaluation of the antagonist activity of compounds at the human CB1 receptor expressed in transfected CHO cells, determined by measuring their effects on agonist-induced cAMP modulation using the HTRF detection method.
Thereafter, the reference agonist CP 55940 and the adenylyl cyclase activator NKH 477 are added at respective final concentrations of 3 nM and 3 μM.
For basal control measurements, CP 55940 is omitted from the wells containing 3 μM AM 281.
Following 20 min incubation at 37° C., the cells are lysed and the fluorescence acceptor (D2-labeled cAMP) and fluorescence donor (anti-cAMP antibody labeled with europium cryptate) are added.
After 60 min at room temperature, the fluorescence transfer is measured at λex=337 nm and λem=620 and 665 nm using a microplate reader (Rubystar, BMG). The cAMP concentration is determined by dividing the signal measured at 665 nm by that measured at 620 nm (ratio).
The standard reference antagonist is AM 281, which is tested in each experiment at several concentrations to generate a concentration-response curve from which its IC50 value is calculated.

[4] = target: T4, human CB-1 cannabinoid receptor (Homo sapiens, UniProt P21554); experiment: CB1 receptor radioligand binding assay, [3H]CP 55940, transfected CHO cell membranes; conditions: 0.5 nM [3H]CP 55940, CHO membrane homogenates, 120 min at 37° C.
T4 construct: expressed in transfected cells; host or cells: CHO cells
Experimental: Nonspecific binding is determined in the presence of 10 μM WIN 55212-2.
Following incubation, the samples are filtered rapidly under vacuum through glass fiber filters (GF/B, Packard) presoaked with 0.3% PEI and rinsed several times with an ice-cold buffer containing 50 mM Tris-HCl (pH 7.4) and 0.5% BSA using a 96-sample cell harvester (Unifilter, Packard). The filters are dried then counted for radioactivity in a scintillation counter (Topcount, Packard) using a scintillation cocktail (Microscint 0, Packard).
The standard reference compound is CP 55940 which is tested in each experiment at several concentrations to obtain a competition curve from which its IC50 is calculated.

T1 sequence (P29274 whole entry): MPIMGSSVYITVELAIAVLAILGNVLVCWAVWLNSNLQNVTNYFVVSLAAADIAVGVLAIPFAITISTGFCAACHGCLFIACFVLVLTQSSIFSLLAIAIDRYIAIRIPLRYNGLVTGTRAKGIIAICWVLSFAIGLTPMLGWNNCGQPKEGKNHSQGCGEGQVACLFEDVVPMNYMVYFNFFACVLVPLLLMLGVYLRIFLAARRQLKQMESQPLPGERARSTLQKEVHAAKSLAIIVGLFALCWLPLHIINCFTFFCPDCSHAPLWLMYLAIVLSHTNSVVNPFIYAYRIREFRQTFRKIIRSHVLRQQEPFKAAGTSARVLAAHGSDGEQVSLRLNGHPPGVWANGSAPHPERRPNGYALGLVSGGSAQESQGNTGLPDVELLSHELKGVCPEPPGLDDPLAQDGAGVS
T3 sequence (P21554 whole entry): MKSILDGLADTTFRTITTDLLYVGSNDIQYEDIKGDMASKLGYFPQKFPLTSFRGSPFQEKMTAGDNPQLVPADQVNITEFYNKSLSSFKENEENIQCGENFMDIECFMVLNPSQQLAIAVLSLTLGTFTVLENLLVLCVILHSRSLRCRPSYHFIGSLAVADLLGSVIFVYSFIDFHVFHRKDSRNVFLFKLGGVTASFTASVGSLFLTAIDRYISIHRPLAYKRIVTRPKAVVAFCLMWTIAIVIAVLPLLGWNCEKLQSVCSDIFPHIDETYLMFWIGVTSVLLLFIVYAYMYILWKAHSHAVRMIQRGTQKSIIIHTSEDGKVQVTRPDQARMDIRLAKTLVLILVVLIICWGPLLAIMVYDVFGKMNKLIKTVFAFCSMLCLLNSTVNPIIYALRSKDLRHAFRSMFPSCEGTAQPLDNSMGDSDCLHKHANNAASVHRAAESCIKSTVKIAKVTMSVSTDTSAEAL
T4 sequence (P21554 whole entry): as above

| Structure (SMILES) | Ki [1] [nM] | Ki [2] [nM] | IC50 [3] [nM] | Ki [4] [nM] |
| --- | --- | --- | --- | --- |
| Cc1cc(-c2c(-c3ccccn3)nc(N)n3c(=O)n(CCC(F)(F)F)nc23)cc(C)n1 [Example 2-37, 5-amino-8-(2,6-dimethyl-4-pyridyl)-7-(2-pyridyl)-2-(3,3,3-trifluoropropyl)-[1,2,4]triazolo[4,3-c]pyrimidin-3-one] | 31.6 | > 3160 | > 100000 |  |
| Cc1cc(-c2c(-c3nc(C)cs3)nc(N)n3c(=O)n(CCC(F)(F)F)nc23)cc(C)n1 [Example 2-44, 5-amino-8-(2,6-dimethyl-4-pyridyl)-7-(4-methylthiazol-2-yl)-2-(3,3,3-trifluoropropyl)-[1,2,4]triazolo[4,3-c]pyrimidin-3-one] | 20 |  | > 100000 |  |
| CCN(C)c1nc(N)n2c(=O)n(CCC(F)(F)F)nc2c1-c1cc(C)nc(C)c1 [Example 3-4, 5-amino-8-(2,6-dimethyl-4-pyridyl)-7-[ethyl(methyl)amino]-2-(3,3,3-trifluoropropyl)-[1,2,4]triazolo[4,3-c]pyrimidin-3-one] | 126 | > 3160 | > 100000 |  |
| Cc1cc(-c2c(-c3ccc(F)cc3)nc(N)n3c(=O)n(CCC(F)(F)F)nc23)cc(CO)n1 [Example 2-64, 5-amino-7-(4-fluorophenyl)-8-[2-(hydroxymethyl)-6-methyl-4-pyridyl]-2-(3,3,3-trifluoropropyl)-[1,2,4]triazolo[4,3-c]pyrimidin-3-one] | 1.58 | > 1260 | 37400 |  |
| Cc1cc(-c2c(-c3ccccc3)nc(N)n3c(=O)n(C[C@H]4CNCCO4)nc23)cc(C)n1 [Example 2-66, (R)-5-amino-8-(2,6-dimethylpyridin-4-yl)-2-(morpholin-2-ylmethyl)-7-phenyl-[1,2,4]triazolo[4,3-c]pyrimidin-3(2H)-one] | 6.31 | 1000 | > 100000 |  |
| Cc1cc(-c2c(-c3ccccc3)nc(N)n3c(=O)n(CCC(F)(F)F)nc23)cc(C)[n+]1[O-] [Example 2-56, 5-amino-8-(2,6-dimethyl-1-oxido-pyridin-1-ium-4-yl)-7-phenyl-2-(3,3,3-trifluoropropyl)-[1,2,4]triazolo[4,3-c]pyrimidin-3-one] | 12.6 | 316 | > 100000 |  |
| Cc1cc(-c2c(-c3ccccc3)nc(N)n3c(=O)n(CC45C6C7C8C6C4C8C75)nc23)cc(CO)n1 (centres unmarked) [Example 2-62, 5-amino-2-(cuban-1-ylmethyl)-8-[2-(hydroxymethyl)-6-methyl-4-pyridyl]-7-phenyl-[1,2,4]triazolo[4,3-c]pyrimidin-3-one] | 0.316 | 31.6 |  |  |
| Cc1cc(-c2c(-c3ccccc3)nc(N)n3c(=O)n(C[C@@H]4COCCN4C)nc23)cc(C)n1 [Example 2-80, 5-amino-8-(2,6-dimethyl-4-pyridyl)-2-[[(3R)-4-methylmorpholin-3-yl]methyl]-7-phenyl-[1,2,4]triazolo[4,3-c]pyrimidin-3-one] | 7.94 | 200 | > 100000 |  |
| Cc1cc(-c2c(-c3ccccc3)nc(N)n3c(=O)n(C(CNCC(F)(F)F)c4ccccc4)nc23)cc(C)n1 (centres unmarked) [Example 1-31, 5-amino-8-(2,6-dimethyl-4-pyridyl)-7-phenyl-2-[1-phenyl-2-(2,2,2-trifluoroethylamino)ethyl]-[1,2,4]triazolo[4,3-c]pyrimidin-3-one] | 10 | 316 |  |  |
| COC(=O)CCN1CCC(CCn2nc3c(-c4cc(C)nc(C)c4)c(-c4ccccc4)nc(N)n3c2=O)CC1 [Example 2-109, methyl 3-[4-[2-[5-amino-8-(2,6-dimethyl-4-pyridyl)-3-oxo-7-phenyl-[1,2,4]triazolo[4,3-c]pyrimidin-2-yl]ethyl]-1-piperidyl]propanoate] | 20 | 398 |  |  |
| Cc1cc(-c2c(-c3ccccc3)nc(N)n3c(=O)n(CC4CCCCO4)nc23)cc(C)n1 (centres unmarked) [Example 2-82, 5-amino-8-(2,6-dimethyl-4-pyridyl)-7-phenyl-2-(tetrahydropyran-2-ylmethyl)-[1,2,4]triazolo[4,3-c]pyrimidin-3-one] | 0.316 | 251 |  |  |

Next, values leading:

| Ki [1] [nM] | Ki [2] [nM] | IC50 [3] [nM] | Ki [4] [nM] | Structure (SMILES) |
| --- | --- | --- | --- | --- |
| 10 | 251 | > 100000 |  | COCCn1nc2c(-c3cc(C)nc(C)c3)c(-c3ccccc3)nc(N)n2c1=O [Example 2-10, 5-amino-8-(2,6-dimethyl-4-pyridyl)-2-(2-methoxyethyl)-7-phenyl-[1,2,4]triazolo[4,3-c]pyrimidin-3-one] |
| 6.31 |  | > 100000 |  | CCN(C)CCn1nc2c(-c3cc(C)nc(C)c3)c(-c3ccccc3)nc(N)n2c1=O [Example 2-18, 5-amino-8-(2,6-dimethyl-4-pyridyl)-2-[2-[ethyl(methyl)amino]ethyl]-7-phenyl-[1,2,4]triazolo[4,3-c]pyrimidin-3-one] |
| 10 |  | > 100000 |  | Cc1cc(-c2c(-c3ccccc3)nc(N)n3c(=O)n(CC(=O)N(C)C)nc23)cc(C)n1 [Example 2-25, 2-[5-amino-8-(2,6-dimethyl-4-pyridyl)-3-oxo-7-phenyl-[1,2,4]triazolo[4,3-c]pyrimidin-2-yl]-N,N-dimethyl-acetamide] |
| 3.98 | 398 | 3200 |  | COc1nc(Cn2nc3c(-c4cc(C)nc(C)c4)c(-c4ccccc4)nc(N)n3c2=O)ccc1F [Example 1-7, 5-amino-8-(2,6-dimethyl-4-pyridyl)-2-[(5-fluoro-6-methoxy-2-pyridyl)methyl]-7-phenyl-[1,2,4]triazolo[4,3-c]pyrimidin-3-one] |
| 1.26 | 79.4 |  | 18800 | COc1ccc(-c2nc(N)n3c(=O)n(CCC(F)(F)F)nc3c2-c2cc(C)nc(C)c2)cc1 [Example 2-35, 5-amino-8-(2,6-dimethyl-4-pyridyl)-7-(4-methoxyphenyl)-2-(3,3,3-trifluoropropyl)-[1,2,4]triazolo[4,3-c]pyrimidin-3-one] |
| 0.794 | 126 | > 100000 |  | Cc1cc(-c2c(-c3ccccc3)nc(N)n3c(=O)n(Cc4ccc(F)c(N)n4)nc23)cc(CO)n1 [Example 1-45, 5-amino-2-[(6-amino-5-fluoro-2-pyridyl)methyl]-8-[2-(hydroxymethyl)-6-methyl-4-pyridyl]-7-phenyl-[1,2,4]triazolo[4,3-c]pyrimidin-3-one] |
| 15.8 | 501 | > 100000 |  | CCOC(=O)N(C)CCn1nc2c(-c3cc(C)nc(C)c3)c(-c3ccccc3)nc(N)n2c1=O [Example 2-13, ethyl N-[2-[5-amino-8-(2,6-dimethyl-4-pyridyl)-3-oxo-7-phenyl-[1,2,4]triazolo[4,3-c]pyrimidin-2-yl]ethyl]-N-methyl-carbamate] |
| 25.1 | 1000 |  |  | COc1ccc(Cn2nc3c(-c4cc(C)nc(C)c4)c(-c4ccccc4)nc(N)n3c2=O)nn1 [Example 1-33, 5-amino-8-(2,6-dimethyl-4-pyridyl)-2-[(6-methoxypyridazin-3-yl)methyl]-7-phenyl-[1,2,4]triazolo[4,3-c]pyrimidin-3-one] |
| 31.6 | 316 |  |  | Cc1cc(-c2c(-c3ccccc3)nc(N)n3c(=O)n(Cc4cccnn4)nc23)cc(C)[n+]1[O-] [Example 1-43, 5-amino-8-(2,6-dimethyl-1-oxido-pyridin-1-ium-4-yl)-7-phenyl-2-(pyridazin-3-ylmethyl)-[1,2,4]triazolo[4,3-c]pyrimidin-3-one] |
| 1.58 | 501 |  |  | Cc1cc(-c2c(-c3ccccc3)nc(N)n3c(=O)n(Cc4ccc(Cl)cn4)nc23)cc(CO)n1 [Example 1-55, 5-amino-2-[(5-chloro-2-pyridyl)methyl]-8-[2-(hydroxymethyl)-6-methyl-4-pyridyl]-7-phenyl-[1,2,4]triazolo[4,3-c]pyrimidin-3-one] |
